Read-outs that look alike come from different tables or passages of the source.

As a reminder, the IC50 is the concentration that inhibits the measured activity by half. One may read the viability as a read-out of living cells in per cent, often relative to untreated cells.

The subject of data set [1] is ATDC5/FOP-ACVR1 cells. Put plainly: AlamarBlue viability assay in ATDC5/FOP-ACVR1. Particulars: for Viability (%) @10 μM: AlamarBlue, ATDC5/FOP-ACVR1, 10 μM. As for the experimental part: (§1) Generation of ATDC5 stably expressing ACVR1. WT - or FOP-ACVR1 was inserted into doxycycline (Dox)- […]
(§2) (KW111/WT-ACVR1 or KW111/FOP-ACVR1). KW111/WT-ACVR1 or KW111/FOP-ACVR1 and PBaseII […]
(§3) FuGeneHD® (Promega) according to the manufacturer’s protocol, and the neomycin- resistant population (500 µg/mL) was selected. Further selection was performed by selecting a mCherry high positive population (< 5%) after six hours of Dox treatment, sorting it with fluorescent-activated cell sorting (FACS) using AriaII (BD) according to the manufacturer’s protocol, and designating it as ATDC5/WT-ACVR1 or ATDC5/FOP-ACVR1.
(§4) KW111 included PB, active transposable PB elements; TRE-mCMVP, Tetracycline Response Element and a minimal CMV promoter; rtTA, reverse tetracycline-controlled transactivator. PBaseII was an expression plasmid vector containing the PB transposase cDNA with optimized codon usage to human under the control […]
(§5) HTS campaign and follow-up screens. ATDC5/FOP-ACVR1 cells were plated in 96-well white plates (2,000 cells/well/40 µ L, Corning) in DMEM/F-12 supplemented with 5% (v/v) FBS. […]
(§6) 37 °C under 5% CO2. After 3 days incubation, Alkaline Phosphatase activity (ALP) or AlamarBlue activity was measured using Amplite™ Colorimetric Alkaline Phosphatase Assay Kit (AAT Bioquest) or alamarBlue® Cell Viability Reagent (Thermo Fisher Scientific) according to the manufacturer’s protocol, respectively. T h e […]
(§7) was measured on POWERSCAN4 (DS Pharma Biomedical) or EnVision® Multilabel Reader (PerkinElmer).
(§8) Inhibitory effects of the screened compounds are given as percent inhibition, which was calculated using the following equation: (1-([Abs of compound] - [Abs of Min])/([Abs of Max] - [Abs of Min]))× 100, where [Abs of Max] and [Abs of Min] are the mean Abs of DMSO control and 1 µM DMH-1, respectively. The Z’ factor, which is widely used as a measure of the assay quality of each plate, was calculated using the following equation: Z’ factor = 1 - 3 × ([SD of Max] + [SD of Min])/([Abs of Max] - [Abs of Min]) (SI Appendix, Fig.
(§9) The S/B (signal-to-background) ratio was calculated using the following equation: ([Abs of Max]/[Abs of Min]) (SI Appendix, Fig. S3B).
(§10) Using ATDC5/FOP-ACVR1 cells, we performed a first screening (n=2; test compounds = 1 µM, Fig. […]

In data set [2] the test system is ATDC5/FOP-ACVR1 cells. Put plainly: ALP assay (HTS and dose-response) in ATDC5/FOP-ACVR1. The class given is cell-based, mouse. Particulars: same protocol as HTS (72 h).
Data set [3] can be described thus: AlamarBlue viability assay in ATDC5/FOP-ACVR1. Particulars: mouse, ATDC5 cells stably expressing FOP-ACVR1 (ATDC5/FOP-ACVR1). As for the experimental part: as §1, §2, §3, §4, §5, §6, §7, §8, §9, §10
A general note: Resazurin is reduced to fluorescent resorufin, in cell work by metabolically active cells.

Data set [4] relates to FOP-iMSCs. Put plainly: 2D chondrogenic induction of FOP-iMSCs with activin A (GAG, Alcian blue). Format: cell-based, human. Particulars: activin A, 7 days; for effect on GAG in the chondrogenesis of FOP-iMSCs (ERBB2 kinase inhibitors): 100 nM and 1 µM.
The subject of data set [5] is mTOR signaling (p-S6). Put plainly: p-S6 western blotting during chondrogenic induction of FOP-iMSCs with activin A. Format: cell-based, human. Particulars: 1 μM. As for the experimental part:
Western blotting. SDS- PAGE and blotting with whole-cell lysates were performed by standard procedures.
Protein bands were detected with ECL Prime Western Blotting Detection Reagent (GE Healthcare) and visualized using BIO-RAD Molecular Imager® Chemi-DocTM XRS+ with Image LabTM software (Bio-Rad).
All data (relative intensity) were corrected by β-actin.
Antibodies for western blotting and immunostaining.
N ame Company Cat. No Concentration
Human Activin RIA/ALK-2 Antibody R&D Systems) AF637 1:100
Anti-human Vimentin antibody Abcam ab16700 1:40
Collagen I Antibody Novus NB600- 1:100
Anti-rabbit IgG, HRP-linked Antibody Cell Signaling #7074 1:10000 […]
2nd Goat anti-Rabbit IgG (H+L) Secondary Antibody, Invitrogen A-11008 1:100 antibody Alexa Fluor® 488 conjugate
Goat anti-Rabbit IgG (H+L) Secondary Antibody, Invitrogen A-21428 1:500
In general terms: A western blot detects proteins with antibodies after separation by electrophoresis.

Data set [6] has as its system FOP-iMSCs. Put plainly: Microarray / pathway analysis of activin A-induced chondrogenesis of FOP-iMSCs. Format: cell-based, human. Particulars: 100 nM, 100 ng/mL Activin-A, 7 days, microarray, N = 1. Here is the method:
Microarray experiments. 2D chondrogenic induction was performed in FOP-iMSCs stimulated with or without 100 ng/mL Activin-A, TAK 165, CP-724714 and Lapatinib. Seven days after incubation, mRNA was extracted. RNA was reverse transcribed, biotin-labeled and hybridized to GeneChip Human Gene 1.0 ST Expression Array, which was subsequently washed and scanned according to the manufacturer’s instructions (Affymetrix). Raw CEL files were imported into GeneSpring GX 12.6.1 software (Agilent Technologies), and expression values were calculated with the RMA16 algorithm. Pathway analysis was performed by Ingenuity pathway analysis (Qiagen). […]

Data set [7] relates to ATDC5/FOP-ACVR1 cells. In words: ALP assay (HTS and dose-response) in ATDC5/FOP-ACVR1. Format: cell-based, mouse. As for the experimental part:
ATDC5/FOP-ACVR1 cells were plated in 96-well white plates (2,000 cells/well/40 μL, Corning) in DMEM/F-12 supplemented with 5% (v/v) FBS. Two hours after incubation at 37°C under 5% CO2, 10 μL of test compounds (final 1 μM) was added, and the assay plates were incubated at 37°C under 5% CO2. After 3 days of incubation, ALP activity was measured using an Amplite Colorimetric Alkaline Phosphatase Assay Kit (AAT Bioquest) according to the manufacturer's protocol.
as §1, §2
FuGeneHD® (Promega) according to the manufacturer’s protocol, and the neomycin- resistant population (500 µg/mL) was selected. […]
HTS campaign and follow-up screens. […] After 3 days incubation, Alkaline Phosphatase activity (ALP) or AlamarBlue activity was measured using Amplite™ Colorimetric Alkaline Phosphatase Assay Kit (AAT Bioquest) or alamarBlue® Cell Viability Reagent (Thermo Fisher Scientific) according to the manufacturer’s protocol, respectively. […]
as §7, §8
The S/B (signal-to-background) ratio was calculated using the following equation: ([Abs of Max]/[Abs of Min]) (SI Appendix, Fig. S3B). […]

Regarding `CC(C)(C)n1nc(-c2cccc3ccccc23)c2c(N)ncnc21` [1-Naphthyl PP1], the “Viability (%) @10 μM” value in data set [1] came out at 83%. Besides, in data set [2], the IC50 is 12200 nM.

With `COc1ccc(-c2ccc3c(N4CCOC[C@@H]4C)nc(N4CCOC[C@@H]4C)nc3n2)cc1CO` [AZD8055], in data set [3], the viability at 3 days, 10 µM came out at 25%. The IC50 in data set [2] (Mus musculus) is 77 nM.

As for `C=C1/C(=C\C=C2/CCC[C@]3(C)[C@@H]([C@H](C)CCCC(C)C)CC[C@@H]23)C[C@@H](O)C[C@@H]1O` [Alfacalcidol], the viability at 3 days, 10 µM in data set [3] is 54%. Inhibition in data set [2] (Mus musculus) was half-maximal at 526 nM (IC50).

As to `Cn1c(=O)n(-c2ccc(C(C)(C)C#N)cc2)c2c3cc(-c4cnc5ccccc5c4)ccc3ncc21` [BEZ235], the viability at 3 days, 10 µM in data set [3] was 21%. Moreover, the IC50 in data set [2] (Mus musculus) came out at 87 nM.

`Cc1ccc(-n2nc(C(C)(C)C)cc2NC(=O)Nc2ccc(OCCN3CCOCC3)c3ccccc23)cc1` [BIRB 796] had a viability at 3 days, 10 µM in data set [3] of 99%. In data set [2] (Mus musculus), this molecule had an IC50 of 9 nM.

With `COCC(=O)NC/C=C/c1ccc2ncnc(Nc3ccc(Oc4ccc(C)nc4)c(C)c3)c2c1` [CP-724714], the “effect on GAG in the chondrogenesis of FOP-iMSCs (ERBB2 kinase inhibitors)” value in data set [4] is reported as “no effect”. The “p-S6 after 24-hr stimulation” value in data set [5] (24 hr) is “no effects”. The “p-S6 after 7 days of stimulation” value in data set [5] (7 days) is reported as “not”. In data set [6], the “ADAMTS5 expression ratio to the TAK 165-treated group” value is given as 3.1, the “BMP4 expression ratio to the TAK 165-treated group” value came out at 5.2, the “DKK1 expression ratio to the TAK 165-treated group” value is on record as 0.2 and the “FOS expression ratio to the TAK 165-treated group” value came to 3.2. Also, in data set [6], the “FRZB expression ratio to the TAK 165-treated group” value is 3.6, the “FZD3 expression ratio to the TAK 165-treated group” value is recorded as 0.3, the “ITGA3 expression ratio to the TAK 165-treated group” value was 3.9 and the “ITGB3 expression ratio to the TAK 165-treated group” value came out at 3.3. Moreover, in data set [6], the “MMP1 expression ratio to the TAK 165-treated group” value came out at 11.5, the “MMP13 expression ratio to the TAK 165-treated group” value turned out to be 5.4, the “PIK3R3 expression ratio to the TAK 165-treated group” value is listed as 0.4 and the “SPP1 expression ratio to the TAK 165-treated group” value was determined as 4.4. Also, in data set [6], the “TNFRSF11B expression ratio to the TAK 165-treated group” value stood at 3.4, the “WIF1 expression ratio to the TAK 165-treated group” value was 0.1 and the “WNT16 expression ratio to the TAK 165-treated group” value was 3.0.

The molecule `C=C1/C(=C\C=C2/CCC[C@]3(C)[C@@H]([C@H](C)/C=C/[C@@H](O)C4CC4)CC[C@@H]23)C[C@@H](O)C[C@@H]1O` [Calcipotriol] yielded a viability at 3 days, 10 µM in data set [3] of 80%. Besides, the IC50 in data set [2] (Mus musculus) stood at 0.3 nM.

As to `C=C1/C(=C\C=C2/CCC[C@]3(C)[C@@H]([C@H](C)CCCC(C)(C)O)CC[C@@H]23)C[C@@H](O)C[C@@H]1O` [Calcitriol], the IC50 in data set [7] (Mus musculus, 72 h, read-out: IC50 (ALP assay)) amounted to 0.4 nM. The molecule also registered a viability at 3 days, 10 µM in data set [3] of 81%.

As to `CC(C)Oc1ccc(-c2cnc3c(-c4ccnc5ccccc45)cnn3c2)cc1` [DMH-1], the “ALP activity of ATDC5/FOP-ACVR1” value in data set [7] (72 hr after Dox and compound, without BMP stimulation) is reported as “inhibited”. Also, in data set [1] (72 hr after Dox and compound), the “viability (AlamarBlue) of ATDC5/FOP-ACVR1” value is listed as “not”. Besides, the “Viability (%) @10 μM” value in data set [1] is 92%. In addition, 21 nM corresponded to half-maximal inhibition in data set [2] (IC50).

Molecule `CC(C)(C)Cn1c(N)nc2ccc(-c3[nH]c(C(C)(C)C)nc3-c3ccc(F)cc3)nc21` [LY2228820] had a viability at 3 days, 10 µM in data set [3] of 75%. For the same molecule, half-maximal inhibition in data set [2] (Mus musculus) (IC50) was put at 11 nM.

As to `Nc1ncnc2c1c(-c1cccc(OCc3ccccc3)c1)cn2C1CC(CN2CCCC2)C1` (centres unmarked) [NVP-ADW742], the “Viability (%) @10 μM” value in data set [1] was -1%. This molecule had an IC50 in data set [2] of 6570 nM.

As to `CCc1c2c(nc3ccc(O)cc13)-c1cc3c(c(=O)n1C2)COC(=O)[C@]3(O)CC` [SN 38], the “Viability (%) @10 μM” value in data set [1] was determined as 17%. The molecule also yielded an IC50 in data set [2] of 98 nM.

As for `CS(=O)(=O)CCNCc1ccc(-c2ccc3ncnc(Nc4ccc(OCc5cccc(F)c5)c(Cl)c4)c3c2)o1` [lapatinib], in data set [4], the “effect on GAG in the chondrogenesis of FOP-iMSCs (ERBB2 kinase inhibitors)” value is “no effect”. In data set [6], the “ADAMTS5 expression ratio to the TAK 165-treated group” value was determined as 2.1, the “BMP4 expression ratio to the TAK 165-treated group” value stood at 0.4, the “DKK1 expression ratio to the TAK 165-treated group” value is 2.1 and the “FOS expression ratio to the TAK 165-treated group” value amounted to 2.4. Also, in data set [6], the “FRZB expression ratio to the TAK 165-treated group” value was 3.0, the “FZD3 expression ratio to the TAK 165-treated group” value came out at 0.4, the “ITGA3 expression ratio to the TAK 165-treated group” value was found to be 2.5 and the “ITGB3 expression ratio to the TAK 165-treated group” value is reported as 3.6. In data set [6], the “MMP1 expression ratio to the TAK 165-treated group” value was determined as 3.0, the “MMP13 expression ratio to the TAK 165-treated group” value is given as 6.9, the “PIK3R3 expression ratio to the TAK 165-treated group” value is listed as 2.1 and the “SPP1 expression ratio to the TAK 165-treated group” value came out at 3.7. Also, in data set [6], the “TNFRSF11B expression ratio to the TAK 165-treated group” value is 0.5, the “WIF1 expression ratio to the TAK 165-treated group” value came out at 0.1 and the “WNT16 expression ratio to the TAK 165-treated group” value is 0.5.

Take “pertuzumab: ERBB2-selective neutralizing antibody”: in data set [4] (1 µg/mL), the “effect on GAG in the chondrogenesis of FOP-iMSCs (ERBB2 neutralizing antibodies)” value is “no effect”.
